pIC50: −log10 of the molar value.

One experiment has as its target Tubulin (Bos taurus) (UniProt Q6B856+Q862L2+Q862F3). In words: Inhibition of tubulin polymerization by colchicine to that of compound (IC50colchicine/IC50 drug). It is filed as functional.
The target of experiment [1] is T1, Tubulin beta chain (Bos taurus, UniProt Q6B856). In words: (§1) Inhibition of tubulin polymerization. It is filed as functional.
In experiment [2] the target is T1, Tubulin beta chain. The description is as §1.

T1 sequence (Q6B856 whole entry): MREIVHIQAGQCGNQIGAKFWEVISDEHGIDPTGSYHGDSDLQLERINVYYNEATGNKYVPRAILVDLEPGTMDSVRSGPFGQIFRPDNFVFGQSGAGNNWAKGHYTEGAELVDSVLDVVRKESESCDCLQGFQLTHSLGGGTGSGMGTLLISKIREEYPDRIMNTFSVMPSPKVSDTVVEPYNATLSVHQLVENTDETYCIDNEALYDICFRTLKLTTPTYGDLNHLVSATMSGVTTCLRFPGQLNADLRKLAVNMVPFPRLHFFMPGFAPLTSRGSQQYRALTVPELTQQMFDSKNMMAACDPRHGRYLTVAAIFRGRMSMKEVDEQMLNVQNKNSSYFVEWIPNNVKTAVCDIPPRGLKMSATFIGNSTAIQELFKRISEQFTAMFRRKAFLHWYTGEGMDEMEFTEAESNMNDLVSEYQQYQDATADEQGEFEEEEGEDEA

With `C[C@]12CC[C@@H]3c4ccc(=O)ccc4CC[C@H]3[C@@H]1CC[C@@H]2O`, the Activity on Tubulin (Bos taurus) worked out at 2.5. The compound also gave a pIC50 on Tubulin beta chain [1] of 5.36.

Compound `C[C@]12CC[C@@H]3c4ccc(Cl)c(=O)cc4CC[C@H]3[C@@H]1CC[C@@H]2O` gave an Activity on Tubulin (Bos taurus) of 4. The pIC50 at Tubulin beta chain [1] was 5.55.

In the case of `C[C@]12CC[C@@H]3c4ccc(=O)c(Br)cc4CC[C@H]3[C@@H]1CC[C@@H]2O`, the pIC50 against Tubulin beta chain [2] is 4.95.

Turning to `COc1ccc2c(cc1=O)CC[C@@H]1[C@@H]2CC[C@]2(C)[C@@H](O)CC[C@@H]12`, the pIC50 against Tubulin beta chain [2] is 5.09. This pIC50 and that of the compound before are within 0.2 log units of each other.

`COc1cc2c(ccc1=O)CC[C@@H]1[C@@H]2CC[C@]2(C)[C@@H](O)CC[C@@H]12` had a pIC50 against Tubulin beta chain [2] of 4.53.

The compound `C[C@]12CC[C@@H]3c4cccc(=O)cc4CC[C@H]3[C@@H]1CC[C@@H]2O` had a pIC50 on Tubulin beta chain [2] of 5.14.

`COc1ccc2c(cc1=O)[C@H]1CC[C@]3(C)[C@@H](O)CC[C@H]3[C@@H]1CC2` gave a pIC50 on Tubulin beta chain [2] of 4.56.

Take `C[C@]12CC[C@@H]3c4ccc(=O)c(Cl)cc4CC[C@H]3[C@@H]1CC[C@@H]2O`: the Activity at Tubulin (Bos taurus) is 1.1. In addition, on Tubulin beta chain [1], the pIC50 was 5.01.

Take `COc1cc2c(cc1O)CC[C@@H]1[C@@H]2CC[C@]2(C)[C@@H](O)CC[C@@H]12` [2-METHOXYESTRADIOL]: the pIC50 against Tubulin beta chain [2] was 4.85.

`COc1cc2c(ccc1=O)[C@H]1CC[C@]3(C)[C@@H](O)CC[C@H]3[C@@H]1CC2` had a pIC50 on Tubulin beta chain [2] of 5.68.

Turning to `C[C@]12CC[C@@H]3c4ccc(Br)c(=O)cc4CC[C@H]3[C@@H]1CC[C@@H]2O`, the Activity at Tubulin (Bos taurus) amounted to 3.9. Also, the pIC50 against Tubulin beta chain [1] is 5.54.

On Tubulin beta chain [2], `CCOc1cc2c(ccc1=O)[C@H]1CC[C@]3(C)[C@@H](O)CC[C@H]3[C@@H]1CC2` gave a pIC50 of 5.23.

One may read the pIC50 as −log10 of the IC50, conventionally taken in molar units. Higher therefore signals a small IC50.

The record behind these values is ChEMBL document CHEMBL1130240, “Synthesis and structure-activity profiles of A-homoestranes, the estratropones” (J Med Chem, 1997).
